Measurements from paper PMC7226075, “A Novel Serine Protease Inhibitor PE-BBI Ameliorates Cockroach Extract-Mediated Airway Epithelial Barrier Dysfunction” (Biomolecules, 2020).
Entries after “also recorded” stand apart in the source; their conditions may differ.

Tests used:
[1] = system: 16HBE cell surface TLP activity; test: 16HBE cell surface TLP activity assay; assay type: cell-based, human; conditions: polarised 16HBE, inhibitor 50 µM, Boc-QAR-NH2Mec 50 µM apical, 1 h continuous, λex 380/λem 460 nm; n = 7, mean ± SEM
Procedure: Studies were performed using a SV-40-transformed human bronchial epithelial cell line (16HBE14o^-). The 16HBE cells were grown on collagen-coated T75 flasks (Corning) using bronchial epithelial growth medium (BEGM) (Lonza), in a humidified cell culture incubator supplemented with 5% CO2. After trypsinization, cells (5 × 10^5 cells/cm^2) were seeded onto semipermeable transwell filters (Corning) in BEGM and allowed to grow at liquid–liquid interface for 2 days then switched to DMEM/F-12 medium supplemented with 2% (v/v) Ultroser G (Pall-BioSpera) for a further 2 days (liquid–liquid interface), at which point cultures were exposed to air–liquid interface conditions for a further 5–7 day period, whereupon experiments were conducted.
Polarised 16HBE cells grown on transwell semi-permeable filters were used to assess cell surface TLP activity. Apical cell-surface (membrane-attached) proteolytic activity was measured in stringently washed (using PBS) cells via direct addition of a fluorogenic peptide substrate (50 µM Boc-QAR-–NH2Mec) to the apical compartment with continuous measurement of the formation of –NH2Mec (at λex 380 nm and λem 460 nm) over a 1 h period. Surface activity was determined in the presence and absence of protease inhibitors (GM, pLR-HL or PE-BBI) which were added at a final concentration of 50 µM.

[2] = system: cockroach extract (CRE) trypsin-like protease (TLP) activity; test: Inhibition of CRE trypsin-like protease (TLP) activity, fluorogenic peptide substrate-based assay; assay type: biochemical, German cockroach; conditions: Boc-QAR-NH2Mec 50 µM, λex 380/λem 460 nm, 37 °C, 100 μL, inhibitors 0.01–10 μM, four-parameter logistic fit; mean (95% CI) in Figure 1B, n ≥ 4
Procedure: Whole-body German cockroach extract was sourced from Greer Laboratories (USA). All other reagents were obtained from Sigma-Aldrich unless otherwise indicated.
(§1) Cleavage of the fluorogenic peptide substrate Boc-QAR-NH2Mec (50 µM final concentration) (R&D Systems) was used to assay TLP activity with the rate of substrate hydrolysis continuously recorded at λex 380 nm and λem 460 nm using a FLUOstar Optima microplate reader (BMG Labtech). All inhibition assays were performed in microtitre plates maintained at 37 °C in a final volume of 100 μL. Curve fitting and pIC50 (-logIC50) determinations were carried out by fitting to a four-parameter logistic equation (GraphPad Prism).

BEAS-2B cells = conditions: ref [13], cited from earlier work
recombinant trypsin = test: Inhibition of recombinant trypsin, fluorogenic peptide substrate-based activity assay; assay type: biochemical; conditions: Boc-QAR-NH2Mec 50 µM, λex 380/λem 460 nm, 37 °C, 100 μL, inhibitors 0.01–10 μM, four-parameter logistic fit; mean (95% CI) in Figure 1B, n ≥ 4
Procedure: as §1

16HBE cells = test: Cell viability assay (RealTime-Glo MT), submerged 16HBE cells; assay type: cell-based, human; conditions: CRE 16.5 µg protein/well, 24 h, inhibitor 50 µM, n = 6
Procedure: Cell viability was measured in submerged 16HBE cells using the non-lytic and homogeneous RealTime-Glo MT Cell Viability Assay (Promega) as per the manufacturer’s instructions.

For `CCOC(=O)c1ccc(OC(=O)CCCCCN=C(N)N)cc1.CS(=O)(=O)O` [GM, gabexate mesylate], the “Effect on 16HBE cell surface TLP activity” value [1] is given as “significantly reduced”, the “pIC50 (-logIC50) vs CRE TLP activity” value [2] is given as ~ 6.7 and the “CRE-induced airway epithelial cell damage in presence of GM” value (BEAS-2B cells; previous study) is given as “ameliorates CRE-induced airway epithelial cell damage”. For the same compound, the “CRE-mediated cell damage and inflammation in presence of GM” value (BEAS-2B cells) was “reduced CRE-mediated cell damage and inflammation”, the “pIC50 (-logIC50) vs recombinant trypsin” value (recombinant trypsin) was 6.76 and the “Rescue of CRE-induced cell damage (viability)” value (16HBE cells) was “failed to do so; also recorded: trend towards modest protection of cells by GM, and pLR-HL, but this was not statistically significant”.
